Results reported in patent publication US10072011B2, “Substituted bridged urea analogs as sirtuin modulators” (GlaxoSmithKline Intellectual Property (No.2) Limited, priority 2014, dated 2018).

Target: T1, SIRT1 (Homo sapiens, UniProt Q96EB6)
T1 sequence (Q96EB6 1-747): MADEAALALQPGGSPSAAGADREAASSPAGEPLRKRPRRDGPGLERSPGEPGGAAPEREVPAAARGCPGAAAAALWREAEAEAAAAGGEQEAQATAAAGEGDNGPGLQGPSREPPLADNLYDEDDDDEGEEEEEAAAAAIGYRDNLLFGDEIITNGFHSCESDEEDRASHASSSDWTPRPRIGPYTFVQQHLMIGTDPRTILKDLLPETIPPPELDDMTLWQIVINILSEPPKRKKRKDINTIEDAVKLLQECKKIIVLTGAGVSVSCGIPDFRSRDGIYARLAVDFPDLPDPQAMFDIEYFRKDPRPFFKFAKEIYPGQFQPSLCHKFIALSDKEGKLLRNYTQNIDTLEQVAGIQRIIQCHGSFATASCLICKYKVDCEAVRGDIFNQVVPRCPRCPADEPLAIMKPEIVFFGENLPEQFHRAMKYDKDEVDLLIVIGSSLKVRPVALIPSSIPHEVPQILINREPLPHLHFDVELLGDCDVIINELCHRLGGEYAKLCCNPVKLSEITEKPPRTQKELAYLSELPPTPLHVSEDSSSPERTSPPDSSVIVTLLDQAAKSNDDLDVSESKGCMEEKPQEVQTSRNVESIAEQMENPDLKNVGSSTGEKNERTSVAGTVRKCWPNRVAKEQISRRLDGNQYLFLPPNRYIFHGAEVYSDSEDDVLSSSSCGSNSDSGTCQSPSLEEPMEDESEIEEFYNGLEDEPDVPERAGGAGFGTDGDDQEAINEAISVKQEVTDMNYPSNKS
Test: Trp mass spectrometry assay of SIRT1 activation (Ac-R-H-K-K(Ac)-W-NH2 peptide)
Type: biochemical
Details: Trp peptide 0.5 μM, 120 μM βNAD+, 10 nM SIRT1, 25 min at 25° C.; for Emax: 25 min, relative to control (100%), read-out: TRP MAX RESP (percent maximum fold activation)
Summary of the method: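 Mass spectrometry read-out (OAADPR formed, or deacetylated Trp peptide) after a 25 min NAD-dependent deacetylation by E. coli-expressed His-SIRT1, stopped with formic acid.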

SMILES	Emax [%]	TRP Activity (EC1.5, concentration of test compound that results in 150% activation of SIRT1)
O=C(N[C@H](c1ccccc1)C(F)(F)F)c1ccc2c(n1)N(C(=O)Nc1cc(OC[C@H](O)CO)ccn1)[C@H]1CCN2C1 [Example 184, (4S)—N5-(4-((R)-2,3-dihydroxypropoxy)pyridin-2-yl)-N7-((R)-2,2,2-trifluoro-1-phenylethyl)-3,4-dihydro-1,4-methanopyrido[2,3-b][1,4]diazepine-5,7(2H)-dicarboxamide]	> 150	A (EC1.5<1 μM)
O=C(NC1CC1)c1ccc2c(n1)N(C(=O)Nc1cc(OC[C@@H](O)CO)ccn1)[C@H]1CCN2C1 [Example 250, (4S)—N7-cyclopropyl-N5-(4-((S)-2,3-dihydroxypropoxy)pyridin-2-yl)-3,4-dihydro-1,4-methanopyrido[2,3-b][1,4]diazepine-5,7(2H)-dicarboxamide]	> 150	A (EC1.5<1 μM)
CC(C)CNC(=O)c1ccc2c(n1)N(C(=O)Nc1ccccn1)[C@H]1CCN2C1 [Example 37, (4S)—N7-isobutyl-N5-(pyridin-2-yl)-3,4-dihydro-1,4-methanopyrido[2,3-b][1,4]diazepine-5,7(2H)-dicarboxamide]	> 150	A (EC1.5<1 μM)
O=C(NCC(F)(F)F)c1nc2c(cc1O)N1CC[C@@H](C1)N2C(=O)Nc1ccccn1 [Example 285, (4S)-8-hydroxy-N5-(pyridin-2-yl)-N7-(2,2,2-trifluoroethyl)-3,4-dihydro-1,4-methanopyrido[2,3-b][1,4]diazepine-5,7(2H)-dicarboxamide]	> 150	A (EC1.5<1 μM)
O=C(NCCO)c1ccnc(NC(=O)N2c3nc(C(=O)NCC(F)(F)F)ccc3N3CC[C@H]2C3)c1 [Example 180, (4S)—N5-(4-((2-hydroxyethyl)carbamoyl)pyridin-2-yl)-N7-(2,2,2-trifluoroethyl)-3,4-dihydro-1,4-methanopyrido[2,3-b][1,4]diazepine-5,7(2H)-dicarboxamide]	> 150	A (EC1.5<1 μM)
CC(C)(C)NC(=O)c1ccc2c(n1)N(C(=O)Nc1ccccn1)[C@H]1CCN2C1 [Example 48, (4S)—N7-(tert-butyl)-N5-(pyridin-2-yl)-3,4-dihydro-1,4-methanopyrido[2,3-b][1,4]diazepine-5,7(2H)-dicarboxamide]	> 150	B (EC1.5 1-25 μM)
O=C(NC1(C(F)(F)F)CC1)c1ccc2c(n1)N(C(=O)Nc1ccccn1)[C@H]1CCN2C1 [Example 241, (4S)—N5-(pyridin-2-yl)-N7-(1-(trifluoromethyl)cyclopropyl)-3,4-dihydro-1,4-methanopyrido[2,3-b][1,4]diazepine-5,7(2H)-dicarboxamide]	> 150	A (EC1.5<1 μM)
C[C@@H](NC(=O)c1ccc2c(n1)N(C(=O)Cc1ccccn1)[C@H]1CCN2C1)C(F)(F)F [Example 276, (4S)-5-(2-(pyridin-2-yl)acetyl)-N—((R)-1,1,1-trifluoropropan-2-yl)-2,3,4,5-tetrahydro-1,4-methanopyrido[2,3-b][1,4]diazepine-7-carboxamide]	< 150	C (EC1.5>25 μM)
C[C@@H](NC(=O)c1ccc2c(n1)N(C(=O)Nc1cccc(OC[C@H](O)CO)n1)[C@H]1CCN2C1)C(F)(F)F [Example 141, (4S)—N5-(6-((R)-2,3-dihydroxypropoxy)pyridin-2-yl)-N7-((R)-1,1,1-trifluoropropan-2-yl)-3,4-dihydro-1,4-methanopyrido[2,3-b][1,4]diazepine-5,7(2H)-dicarboxamide]	> 150	A (EC1.5<1 μM)
NC(CNC(=O)c1ccc2c(n1)N(C(=O)Nc1cc(OC[C@H](O)CO)ccn1)[C@H]1CCN2C1)C(F)(F)F (single isomer, unassigned) [Example 196]	> 150	B (EC1.5 1-25 μM)
CC(C)[C@@H](C)NC(=O)c1ccc2c(n1)N(C(=O)Nc1ccc(F)cn1)[C@H]1CCN2C1 [Example 80, (4S)—N5-(5-fluoropyridin-2-yl)-N7-((R)-3-methylbutan-2-yl)-3,4-dihydro-1,4-methanopyrido[2,3-b][1,4]diazepine-5,7(2H)-dicarboxamide]	> 150	A (EC1.5<1 μM)
O=C(NC1CC1(F)F)c1ccc2c(n1)N(C(=O)Nc1cc(OC[C@H](O)CO)ccn1)[C@H]1CCN2C1 (single isomer, unassigned) [Example 245]	> 150	A (EC1.5<1 μM)

Next, values leading:

Emax [%]	TRP Activity (EC1.5, concentration of test compound that results in 150% activation of SIRT1)	SMILES
> 150	A (EC1.5<1 μM)	C[C@@H](NC(=O)c1ccc2c(n1)N(C(=O)Nc1nccc(OC[C@@H](O)CO)n1)[C@H]1CCN2C1)C(F)(F)F [Example 154, (4S)—N5-(4-((S)-2,3-dihydroxypropoxy)pyrimidin-2-yl)-N7-((R)-1,1,1-trifluoropropan-2-yl)-3,4-dihydro-1,4-methanopyrido[2,3-b][1,4]diazepine-5,7(2H)-dicarboxamide]
> 150	A (EC1.5<1 μM)	C[C@@H](NC(=O)c1ccc2c(n1)N(C(=O)Nc1ncc3[nH]ccc3n1)[C@H]1CCN2C1)C(F)(F)F [Example 147, (4S)—N5-(5H-pyrrolo[3,2-d]pyrimidin-2-yl)-N7-((R)-1,1,1-trifluoropropan-2-yl)-3,4-dihydro-1,4-methanopyrido[2,3-b][1,4]diazepine-5,7(2H)-dicarboxamide]
> 150	B (EC1.5 1-25 μM)	C[C@H](NC(=O)c1ccc2c(n1)N(C(=O)Nc1ccccn1)[C@H]1CCN2C1)C(F)(F)F [Example 207, (4S)—N5-(pyridin-2-yl)-N7-((S)-1,1,1-trifluoropropan-2-yl)-3,4-dihydro-1,4-methanopyrido[2,3-b][1,4]diazepine-5,7(2H)-dicarboxamide]
< 150	A (EC1.5<1 μM)	C[C@@H](NC(=O)c1ccc2c(n1)N(C(=O)Nc1cc(-c3ncn[nH]3)ccn1)[C@H]1CCN2C1)C(F)(F)F [Example 322, (4S)—N5-(4-(1H-1,2,4-triazol-5-yl)pyridin-2-yl)-N7-((R)-1,1,1-trifluoropropan-2-yl)-3,4-dihydro-1,4-methanopyrido[2,3-b][1,4]diazepine-5,7(2H)-dicarboxamide]
> 150	A (EC1.5<1 μM)	Cc1c[nH]c2nc(NC(=O)N3c4nc(C(=O)N[C@H](C)C(F)(F)F)ccc4N4CC[C@H]3C4)ncc12 [Example 175, (4S)—N5-(5-methyl-7H-pyrrolo[2,3-d]pyrimidin-2-yl)-N7-((R)-1,1,1-trifluoropropan-2-yl)-3,4-dihydro-1,4-methanopyrido[2,3-b][1,4]diazepine-5,7(2H)-dicarboxamide]
> 150	A (EC1.5<1 μM)	C[C@@H](NC(=O)c1ccc2c(n1)N(C(=O)Nc1cc(-c3ccn(C)n3)ccn1)[C@H]1CCN2C1)C(F)(F)F [Example 85, (4S)—N5-(4-(1-methyl-1H-pyrazol-3-yl)pyridin-2-yl)-N7-((R)-1,1,1-trifluoropropan-2-yl)-3,4-dihydro-1,4-methanopyrido[2,3-b][1,4]diazepine-5,7(2H)-dicarboxamide]
< 150	A (EC1.5<1 μM)	CCNC(=O)c1ccnc(NC(=O)N2c3nc(C(=O)N[C@H](C)C(F)(F)F)ccc3N3CC[C@H]2C3)c1 [Example 304, (4S)—N5-(4-(ethylcarbamoyl)pyridin-2-yl)-N7-((R)-1,1,1-trifluoropropan-2-yl)-3,4-dihydro-1,4-methanopyrido[2,3-b][1,4]diazepine-5,7(2H)-dicarboxamide]
> 150	A (EC1.5<1 μM)	C[C@@H](NC(=O)c1ccc2c(n1)N(C(=O)Nc1cc(OC[C@H](O)CO)ncn1)[C@H]1CCN2C1)C(F)(F)F [Example 189, (4S)—N5-(6-((R)-2,3-dihydroxypropoxy)pyrimidin-4-yl)-N7-((R)-1,1,1-trifluoropropan-2-yl)-3,4-dihydro-1,4-methanopyrido[2,3-b][1,4]diazepine-5,7(2H)-dicarboxamide]
